Assay results as given in ChEMBL document CHEMBL4507275, “Data for DCP probe BI-2545” (2021).

Assays:
[1] = target: 5'-AMP-activated protein kinase catalytic subunit alpha-1 (Homo sapiens) (UniProt Q13131); details: Compound concentration 1000.0 nM
[2] = target: BMP-2-inducible protein kinase (Homo sapiens) (UniProt Q9NSY1); details: Compound concentration 1000.0 nM
[3] = target: Peripheral plasma membrane protein CASK (Homo sapiens) (UniProt O14936); details: Compound concentration 1000.0 nM
[4] = target: Cyclin-dependent kinase 7 (Homo sapiens) (UniProt P50613); details: Compound concentration 1000.0 nM
[5] = target: Cyclin-dependent kinase-like 5 (Homo sapiens) (UniProt O76039); details: Compound concentration 1000.0 nM
[6] = target: Serine/threonine-protein kinase DCLK1 (Homo sapiens) (UniProt O15075); details: Compound concentration 1000.0 nM
[7] = target: Ephrin type-A receptor 3 (Homo sapiens) (UniProt P29320); details: Compound concentration 1000.0 nM
[8] = target: Tyrosine-protein kinase Fgr (Homo sapiens) (UniProt P09769); details: Compound concentration 1000.0 nM
[9] = tested on: Receptor-type tyrosine-protein kinase FLT3 (Homo sapiens), P36888 [UNDEFINED MUTATION]; details: Compound concentration 1000.0 nM
[10] = tested on: Receptor-type tyrosine-protein kinase FLT3 (Homo sapiens), P36888 [K663Q]; details: Compound concentration 1000.0 nM
[11] = tested on: eIF-2-alpha kinase GCN2 (Homo sapiens), Q9P2K8 [S808G]; details: Compound concentration 1000.0 nM
[12] = target: Homeodomain-interacting protein kinase 1 (Homo sapiens) (UniProt Q86Z02); details: Compound concentration 1000.0 nM
[13] = target: Serine/threonine-protein kinase LATS1 (Homo sapiens) (UniProt O95835); details: Compound concentration 1000.0 nM
[14] = target: Serine/threonine-protein kinase STK11 (Homo sapiens) (UniProt Q15831); details: Compound concentration 1000.0 nM
[15] = target: Serine/threonine-protein kinase MAK (Homo sapiens) (UniProt P20794); details: Compound concentration 1000.0 nM
[16] = target: Dual specificity mitogen-activated protein kinase kinase 5 (Homo sapiens) (UniProt Q13163); details: Compound concentration 1000.0 nM
[17] = target: MAP kinase-interacting serine/threonine-protein kinase 2 (Homo sapiens) (UniProt Q9HBH9); details: Compound concentration 1000.0 nM
[18] = target: Serine/threonine-protein kinase 26 (Homo sapiens) (UniProt Q9P289); details: Compound concentration 1000.0 nM
[19] = target: Myosin-IIIa (Homo sapiens) (UniProt Q8NEV4); details: Compound concentration 1000.0 nM
[20] = target: Myosin-IIIb (Homo sapiens) (UniProt Q8WXR4); details: Compound concentration 1000.0 nM
[21] = target: Serine/threonine-protein kinase 38-like (Homo sapiens) (UniProt Q9Y2H1); details: Compound concentration 1000.0 nM
[22] = target: Serine/threonine-protein kinase Nek5 (Homo sapiens) (UniProt Q6P3R8); details: Compound concentration 1000.0 nM
[23] = target: Mitogen-activated protein kinase kinase kinase 14 (Homo sapiens) (UniProt Q99558); details: Compound concentration 1000.0 nM
[24] = target: Phosphatidylinositol 4,5-bisphosphate 3-kinase catalytic subunit alpha isoform (Homo sapiens) (UniProt P42336); details: Compound concentration 1000.0 nM
[25] = tested on: Phosphatidylinositol 4,5-bisphosphate 3-kinase catalytic subunit alpha isoform (Homo sapiens), P42336 [E545A]; details: Compound concentration 1000.0 nM
[26] = target: Serine/threonine-protein kinase pim-3 (Homo sapiens) (UniProt Q86V86); details: Compound concentration 1000.0 nM
[27] = target: Protein kinase C eta type (Homo sapiens) (UniProt P24723); details: Compound concentration 1000.0 nM
[28] = target: RAF proto-oncogene serine/threonine-protein kinase (Homo sapiens) (UniProt P04049); details: Compound concentration 1000.0 nM
[29] = target: Ribosomal protein S6 kinase beta-1 (Homo sapiens) (UniProt P23443); details: Compound concentration 1000.0 nM
[30] = target: Serine/threonine-protein kinase SBK1 (Homo sapiens) (UniProt Q52WX2); details: Compound concentration 1000.0 nM
[31] = target: NUAK family SNF1-like kinase 2 (Homo sapiens) (UniProt Q9H093); details: Compound concentration 1000.0 nM
[32] = target: Serine/threonine-protein kinase ULK3 (Homo sapiens) (UniProt Q6PHR2); details: Compound concentration 1000.0 nM
[33] = target: Serine/threonine-protein kinase VRK2 (Homo sapiens) (UniProt Q86Y07); details: Compound concentration 1000.0 nM
[34] = target: Serine/threonine-protein kinase 32C (Homo sapiens) (UniProt Q86UX6); details: Compound concentration 1000.0 nM
[35] = target: 5-hydroxytryptamine receptor 1E (Homo sapiens) (UniProt P28566); details: Compound concentration 10.0 uM
[36] = target: Histamine H1 receptor (Homo sapiens) (UniProt P35367); details: Compound concentration 10.0 uM
[37] = target: T1, Alpha-1A adrenergic receptor (Homo sapiens) (UniProt P35348); details: Compound concentration 10.0 uM
T1 sequence (whole entry): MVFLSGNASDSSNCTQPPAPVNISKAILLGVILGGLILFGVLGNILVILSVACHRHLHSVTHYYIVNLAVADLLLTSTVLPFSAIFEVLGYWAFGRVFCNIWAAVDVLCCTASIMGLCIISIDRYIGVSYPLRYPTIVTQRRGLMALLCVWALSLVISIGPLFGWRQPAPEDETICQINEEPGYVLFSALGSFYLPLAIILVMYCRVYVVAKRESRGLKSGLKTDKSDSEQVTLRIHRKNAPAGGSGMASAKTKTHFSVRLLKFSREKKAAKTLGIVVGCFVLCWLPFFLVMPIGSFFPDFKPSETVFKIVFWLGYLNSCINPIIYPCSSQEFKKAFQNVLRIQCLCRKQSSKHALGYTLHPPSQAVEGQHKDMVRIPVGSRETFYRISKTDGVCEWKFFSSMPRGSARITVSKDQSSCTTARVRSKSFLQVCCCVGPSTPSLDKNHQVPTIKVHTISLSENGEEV

[38] = target: Alpha-2B adrenergic receptor (Homo sapiens) (UniProt P18089); details: Compound concentration 10.0 uM

Sequence of Dual specificity mitogen-activated protein kinase kinase 5 (Homo sapiens) (Q13163 whole entry): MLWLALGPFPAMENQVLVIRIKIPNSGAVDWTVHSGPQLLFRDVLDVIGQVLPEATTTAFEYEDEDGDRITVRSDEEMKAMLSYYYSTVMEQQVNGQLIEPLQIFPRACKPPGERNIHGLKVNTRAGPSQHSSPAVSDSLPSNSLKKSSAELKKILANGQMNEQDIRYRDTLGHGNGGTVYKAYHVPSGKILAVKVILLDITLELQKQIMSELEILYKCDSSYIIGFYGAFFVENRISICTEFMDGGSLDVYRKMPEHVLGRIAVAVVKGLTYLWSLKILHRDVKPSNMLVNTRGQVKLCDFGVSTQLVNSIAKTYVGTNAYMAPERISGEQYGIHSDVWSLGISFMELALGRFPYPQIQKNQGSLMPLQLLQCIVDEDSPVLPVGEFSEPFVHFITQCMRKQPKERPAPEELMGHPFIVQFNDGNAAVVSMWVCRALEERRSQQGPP
Sequence of Serine/threonine-protein kinase STK11 (Homo sapiens) (Q15831 whole entry): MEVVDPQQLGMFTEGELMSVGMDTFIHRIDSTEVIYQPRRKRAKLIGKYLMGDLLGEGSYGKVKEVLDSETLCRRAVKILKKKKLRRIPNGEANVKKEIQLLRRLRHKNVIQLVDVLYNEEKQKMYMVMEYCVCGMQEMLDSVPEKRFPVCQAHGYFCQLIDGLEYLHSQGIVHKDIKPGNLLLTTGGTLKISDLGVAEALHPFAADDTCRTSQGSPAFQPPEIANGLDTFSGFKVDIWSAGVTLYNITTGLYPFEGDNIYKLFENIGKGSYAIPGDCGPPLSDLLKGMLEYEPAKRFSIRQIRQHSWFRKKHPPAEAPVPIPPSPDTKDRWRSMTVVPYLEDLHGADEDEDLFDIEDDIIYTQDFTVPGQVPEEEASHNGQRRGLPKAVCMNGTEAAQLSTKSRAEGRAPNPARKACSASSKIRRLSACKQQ
Sequence of Mitogen-activated protein kinase kinase kinase 14 (Homo sapiens) (Q99558 whole entry, looked up, canonical isoform): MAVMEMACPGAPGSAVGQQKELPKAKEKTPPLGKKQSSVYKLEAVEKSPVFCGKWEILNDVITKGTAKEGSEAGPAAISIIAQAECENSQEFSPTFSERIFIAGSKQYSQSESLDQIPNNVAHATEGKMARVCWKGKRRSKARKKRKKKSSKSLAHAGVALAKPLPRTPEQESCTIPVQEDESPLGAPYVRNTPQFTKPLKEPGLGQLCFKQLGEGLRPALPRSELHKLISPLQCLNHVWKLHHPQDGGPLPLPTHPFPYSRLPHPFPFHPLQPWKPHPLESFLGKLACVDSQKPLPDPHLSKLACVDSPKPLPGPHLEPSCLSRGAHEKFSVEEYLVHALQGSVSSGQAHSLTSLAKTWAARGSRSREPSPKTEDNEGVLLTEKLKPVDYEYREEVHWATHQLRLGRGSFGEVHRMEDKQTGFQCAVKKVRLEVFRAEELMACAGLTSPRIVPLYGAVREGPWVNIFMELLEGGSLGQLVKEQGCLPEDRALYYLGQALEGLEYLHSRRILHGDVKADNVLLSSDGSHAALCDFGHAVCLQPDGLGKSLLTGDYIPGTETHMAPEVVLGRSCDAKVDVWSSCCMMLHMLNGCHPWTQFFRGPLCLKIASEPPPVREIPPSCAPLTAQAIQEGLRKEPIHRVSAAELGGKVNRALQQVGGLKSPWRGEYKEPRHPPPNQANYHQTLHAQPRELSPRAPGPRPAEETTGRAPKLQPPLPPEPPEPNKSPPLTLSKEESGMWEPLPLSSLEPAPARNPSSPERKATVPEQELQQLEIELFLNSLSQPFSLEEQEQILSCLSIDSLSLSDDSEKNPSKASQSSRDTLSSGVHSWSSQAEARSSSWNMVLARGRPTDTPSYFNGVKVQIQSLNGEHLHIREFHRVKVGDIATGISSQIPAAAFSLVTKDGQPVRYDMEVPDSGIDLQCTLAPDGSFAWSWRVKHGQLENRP
Sequence of Serine/threonine-protein kinase 26 (Homo sapiens) (Q9P289 2-416 limits assumed): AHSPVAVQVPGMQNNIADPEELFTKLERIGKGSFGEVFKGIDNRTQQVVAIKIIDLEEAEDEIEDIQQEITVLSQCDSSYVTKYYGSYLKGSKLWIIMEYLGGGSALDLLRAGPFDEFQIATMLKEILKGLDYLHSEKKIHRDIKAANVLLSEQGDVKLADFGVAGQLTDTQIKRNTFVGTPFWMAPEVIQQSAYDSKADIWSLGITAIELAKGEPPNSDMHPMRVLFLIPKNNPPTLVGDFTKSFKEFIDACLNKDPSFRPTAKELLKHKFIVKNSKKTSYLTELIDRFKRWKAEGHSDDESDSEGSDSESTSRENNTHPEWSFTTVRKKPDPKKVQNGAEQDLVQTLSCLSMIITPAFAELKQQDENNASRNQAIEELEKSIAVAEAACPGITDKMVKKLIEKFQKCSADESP
Sequence of Cyclin-dependent kinase 7 (Homo sapiens) (P50613 whole entry): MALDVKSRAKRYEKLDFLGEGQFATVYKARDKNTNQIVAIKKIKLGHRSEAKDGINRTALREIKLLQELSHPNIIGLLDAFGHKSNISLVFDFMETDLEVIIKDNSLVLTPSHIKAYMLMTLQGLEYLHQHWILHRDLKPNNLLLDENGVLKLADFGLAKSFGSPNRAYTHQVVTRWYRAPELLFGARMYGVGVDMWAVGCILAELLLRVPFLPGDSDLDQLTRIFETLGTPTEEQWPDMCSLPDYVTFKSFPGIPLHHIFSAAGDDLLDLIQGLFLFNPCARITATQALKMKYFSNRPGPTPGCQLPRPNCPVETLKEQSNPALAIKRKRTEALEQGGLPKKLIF
Sequence of Ribosomal protein S6 kinase beta-1 (Homo sapiens) (P23443 whole entry, looked up): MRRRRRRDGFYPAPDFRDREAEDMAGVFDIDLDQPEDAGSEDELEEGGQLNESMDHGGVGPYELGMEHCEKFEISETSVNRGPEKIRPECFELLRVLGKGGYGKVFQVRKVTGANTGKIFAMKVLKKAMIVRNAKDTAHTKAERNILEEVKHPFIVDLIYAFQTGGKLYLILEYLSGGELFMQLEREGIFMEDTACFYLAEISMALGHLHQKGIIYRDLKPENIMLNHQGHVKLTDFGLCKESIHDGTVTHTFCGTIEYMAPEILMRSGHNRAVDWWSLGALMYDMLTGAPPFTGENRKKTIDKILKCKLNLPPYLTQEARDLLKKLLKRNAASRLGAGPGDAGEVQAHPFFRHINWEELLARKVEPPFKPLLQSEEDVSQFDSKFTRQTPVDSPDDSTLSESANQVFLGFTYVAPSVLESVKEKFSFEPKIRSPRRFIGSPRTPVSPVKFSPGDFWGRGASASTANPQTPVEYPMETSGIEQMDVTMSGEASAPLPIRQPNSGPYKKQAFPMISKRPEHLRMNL
Sequence of Phosphatidylinositol 4,5-bisphosphate 3-kinase catalytic subunit alpha isoform (Homo sapiens), P42336 [E545A] (P42336 whole entry E545A, canonical isoform): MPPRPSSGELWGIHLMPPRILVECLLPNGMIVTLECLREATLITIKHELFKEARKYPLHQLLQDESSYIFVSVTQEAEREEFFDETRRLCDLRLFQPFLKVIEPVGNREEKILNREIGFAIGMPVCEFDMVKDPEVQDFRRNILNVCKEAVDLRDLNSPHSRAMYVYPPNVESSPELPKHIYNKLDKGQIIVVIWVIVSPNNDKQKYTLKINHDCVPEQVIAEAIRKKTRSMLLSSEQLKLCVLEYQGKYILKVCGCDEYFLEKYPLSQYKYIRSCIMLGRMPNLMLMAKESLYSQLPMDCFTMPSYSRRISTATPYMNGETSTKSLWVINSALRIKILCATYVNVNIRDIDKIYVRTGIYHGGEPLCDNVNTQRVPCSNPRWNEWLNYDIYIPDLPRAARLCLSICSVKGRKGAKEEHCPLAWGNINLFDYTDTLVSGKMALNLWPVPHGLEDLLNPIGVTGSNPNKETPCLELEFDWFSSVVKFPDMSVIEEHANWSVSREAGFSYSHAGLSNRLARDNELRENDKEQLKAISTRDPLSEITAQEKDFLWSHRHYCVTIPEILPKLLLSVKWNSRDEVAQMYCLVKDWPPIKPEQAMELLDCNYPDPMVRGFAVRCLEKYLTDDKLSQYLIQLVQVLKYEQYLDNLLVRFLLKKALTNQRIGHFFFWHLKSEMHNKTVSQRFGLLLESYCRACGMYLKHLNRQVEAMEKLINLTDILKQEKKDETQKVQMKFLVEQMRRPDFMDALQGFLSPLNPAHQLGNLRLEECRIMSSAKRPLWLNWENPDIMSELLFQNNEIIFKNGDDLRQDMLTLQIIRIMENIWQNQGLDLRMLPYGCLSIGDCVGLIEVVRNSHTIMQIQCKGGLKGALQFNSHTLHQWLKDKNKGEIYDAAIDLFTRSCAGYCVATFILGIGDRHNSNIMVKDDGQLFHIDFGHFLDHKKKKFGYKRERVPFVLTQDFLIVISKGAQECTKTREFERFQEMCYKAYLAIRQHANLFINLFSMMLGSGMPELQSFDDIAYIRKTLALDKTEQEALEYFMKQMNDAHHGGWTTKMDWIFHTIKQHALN
Sequence of Protein kinase C eta type (Homo sapiens) (P24723 whole entry): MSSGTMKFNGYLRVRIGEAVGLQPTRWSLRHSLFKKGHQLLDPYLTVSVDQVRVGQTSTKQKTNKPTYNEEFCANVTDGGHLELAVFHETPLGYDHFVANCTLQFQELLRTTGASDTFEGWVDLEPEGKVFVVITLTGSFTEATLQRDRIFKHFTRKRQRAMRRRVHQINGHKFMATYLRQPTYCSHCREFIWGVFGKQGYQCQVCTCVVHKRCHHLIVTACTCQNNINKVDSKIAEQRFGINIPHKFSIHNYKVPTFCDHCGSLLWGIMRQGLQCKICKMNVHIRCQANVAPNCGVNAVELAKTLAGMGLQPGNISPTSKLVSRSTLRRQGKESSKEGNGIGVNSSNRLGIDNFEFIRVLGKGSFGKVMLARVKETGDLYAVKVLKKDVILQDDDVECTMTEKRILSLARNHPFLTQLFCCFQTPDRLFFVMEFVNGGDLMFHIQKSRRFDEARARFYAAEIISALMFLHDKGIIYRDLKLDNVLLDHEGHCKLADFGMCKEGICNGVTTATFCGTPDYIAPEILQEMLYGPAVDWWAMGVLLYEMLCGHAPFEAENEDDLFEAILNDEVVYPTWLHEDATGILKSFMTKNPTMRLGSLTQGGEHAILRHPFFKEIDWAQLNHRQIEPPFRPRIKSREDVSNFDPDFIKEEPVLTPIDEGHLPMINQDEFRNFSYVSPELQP

Compound	residual activity [1]	residual activity [2]	residual activity [3]	residual activity [4]	residual activity [5]	residual activity [6]	residual activity [7]	residual activity [8]	residual activity [9]	residual activity [10]	residual activity [11]	residual activity [12]	residual activity [13]	residual activity [14]	residual activity [15]	residual activity [16]	residual activity [17]	residual activity [18]	residual activity [19]	residual activity [20]	other results
O=C(NC[C@@H]1[C@H]2CN(C(=O)OCc3cc(C(F)(F)F)cc(C(F)(F)F)c3)C[C@@H]12)c1ccc2[nH]nnc2c1 [BI 2545]	100%	85%	70%	92%	100%	94%	100%	88%	83%	98%	84%	85%	96%	100%	100%	100%	90%	76%	98%	100%	residual activity [21]: 45%; residual activity [22]: 94%; residual activity [23]: 77%; residual activity [24]: 74%; residual activity [25]: 96%; residual activity [26]: 100%; residual activity [27]: 100%; residual activity [28]: 100%; residual activity [29]: 86%; residual activity [30]: 97%; residual activity [31]: 88%; residual activity [32]: 99%; residual activity [33]: 100%; residual activity [34]: 90%; inhibition [35]: 33.6%; inhibition [36]: 12.8%; inhibition [37]: 4.06%; inhibition [38]: 25.2%
Cc1nccc(COC(=O)N2C[C@@H]3[C@@H](CNC(=O)c4ccc5[nH]nnc5c4)[C@@H]3C2)n1 [BI 3017]	92%	100%	72%	78%	87%	90%	93%	100%	100%	100%	84%	82%	89%	100%	98%	100%	90%	77%	99%	100%	residual activity [21]: 70%; residual activity [22]: 87%; residual activity [23]: 66%; residual activity [24]: 92%; residual activity [25]: 87%; residual activity [26]: 97%; residual activity [27]: 98%; residual activity [28]: 94%; residual activity [29]: 84%; residual activity [30]: 93%; residual activity [31]: 100%; residual activity [32]: 100%; residual activity [33]: 29%; residual activity [34]: 95%; inhibition [35]: 31.8%; inhibition [36]: 18.1%; inhibition [37]: -3.15%; inhibition [38]: 1.15%
